Reference: PubChem BioAssay (NCI)
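Growth conditions: 96-well plates. Treatment: test compound, 48 hours, 5 concentrations. Analysis: linear interpolation between bracketing concentrations; unreached endpoints set to highest concentration. The concentration for full growth arrest is given as TGI.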

The compounds below were run on T-47D breast (assay: inhibition of tumour cell growth, NCI panel, 48 h).

| SMILES | TGI [µM] |
| --- | --- |
| COC(=O)CCC1(C)C2CCC1/C(=N/O)C2 (centres undefined) | > 100 |
| O=C1/C(=C\c2cccc(Oc3ccccc3)c2)S(=O)(=O)C(c2ccccc2)N1c1cc(Cl)ccc1Cl (centres undefined) | 82.4 |
| CCc1nc(N)c2nc(-c3ccc(C#N)cc3)oc2n1 | > 100 |
| S=C(NCCc1ccccn1)c1nc[nH]c1C(=S)NCCc1ccccn1 | 60.6 |

The compounds below were run on OVCAR-3 ovarian (assay: inhibition of tumour cell growth, NCI panel, 48 h).

| SMILES | TGI [µM] |
| --- | --- |
| Cc1ncc(CSc2ccccc2N)c(CO)c1O | > 100 |
| COC(=O)CCC1(C)C2CCC1/C(=N/O)C2 (centres undefined) | > 100 |
| O=C1/C(=C\c2cccc(Oc3ccccc3)c2)S(=O)(=O)C(c2ccccc2)N1c1cc(Cl)ccc1Cl (centres undefined) | 41.9 |
| CCc1nc(N)c2nc(-c3ccc(C#N)cc3)oc2n1 | > 100 |
| S=C(NCCc1ccccn1)c1nc[nH]c1C(=S)NCCc1ccccn1 | > 100 |

Each compound was assayed on A498 renal (assay: inhibition of tumour cell growth, NCI panel, 48 h).

| SMILES | TGI [µM] |
| --- | --- |
| Cc1ncc(CSc2ccccc2N)c(CO)c1O | > 100 |
| COC(=O)CCC1(C)C2CCC1/C(=N/O)C2 (centres undefined) | > 100 |
| O=C1/C(=C\c2cccc(Oc3ccccc3)c2)S(=O)(=O)C(c2ccccc2)N1c1cc(Cl)ccc1Cl (centres undefined) | > 100 |
| CCc1nc(N)c2nc(-c3ccc(C#N)cc3)oc2n1 | > 100 |
| S=C(NCCc1ccccn1)c1nc[nH]c1C(=S)NCCc1ccccn1 | > 100 |

Each compound was assayed on HCT-116 colon (assay: inhibition of tumour cell growth, NCI panel, 48 h).

| SMILES | TGI [µM] |
| --- | --- |
| Cc1ncc(CSc2ccccc2N)c(CO)c1O | > 100 |
| COC(=O)CCC1(C)C2CCC1/C(=N/O)C2 (centres undefined) | > 100 |
| O=C1/C(=C\c2cccc(Oc3ccccc3)c2)S(=O)(=O)C(c2ccccc2)N1c1cc(Cl)ccc1Cl (centres undefined) | 21.2 |
| CCc1nc(N)c2nc(-c3ccc(C#N)cc3)oc2n1 | > 100 |
| S=C(NCCc1ccccn1)c1nc[nH]c1C(=S)NCCc1ccccn1 | > 100 |

The compounds below were run on M14 melanoma (assay: inhibition of tumour cell growth, NCI panel, 48 h).

| SMILES | TGI [µM] |
| --- | --- |
| Cc1ncc(CSc2ccccc2N)c(CO)c1O | > 100 |
| COC(=O)CCC1(C)C2CCC1/C(=N/O)C2 (centres undefined) | > 100 |
| O=C1/C(=C\c2cccc(Oc3ccccc3)c2)S(=O)(=O)C(c2ccccc2)N1c1cc(Cl)ccc1Cl (centres undefined) | 44.1 |
| CCc1nc(N)c2nc(-c3ccc(C#N)cc3)oc2n1 | > 100 |
| S=C(NCCc1ccccn1)c1nc[nH]c1C(=S)NCCc1ccccn1 | > 100 |

What follows are compounds tested on HOP-92 NSCLC (assay: inhibition of tumour cell growth, NCI panel, 48 h).

| SMILES | TGI [µM] |
| --- | --- |
| Cc1ncc(CSc2ccccc2N)c(CO)c1O | > 100 |
| O=C1/C(=C\c2cccc(Oc3ccccc3)c2)S(=O)(=O)C(c2ccccc2)N1c1cc(Cl)ccc1Cl (centres undefined) | 40.4 |
| CCc1nc(N)c2nc(-c3ccc(C#N)cc3)oc2n1 | > 100 |
| S=C(NCCc1ccccn1)c1nc[nH]c1C(=S)NCCc1ccccn1 | > 100 |

These compounds were tested on NCI-H522 lung (assay: inhibition of tumour cell growth, NCI panel, 48 h).

| SMILES | TGI [µM] |
| --- | --- |
| Cc1ncc(CSc2ccccc2N)c(CO)c1O | > 100 |
| COC(=O)CCC1(C)C2CCC1/C(=N/O)C2 (centres undefined) | > 100 |
| O=C1/C(=C\c2cccc(Oc3ccccc3)c2)S(=O)(=O)C(c2ccccc2)N1c1cc(Cl)ccc1Cl (centres undefined) | 40 |
| CCc1nc(N)c2nc(-c3ccc(C#N)cc3)oc2n1 | > 100 |

These compounds were tested on HT29 colon (assay: inhibition of tumour cell growth, NCI panel, 48 h).

| SMILES | TGI [µM] |
| --- | --- |
| Cc1ncc(CSc2ccccc2N)c(CO)c1O | > 100 |
| COC(=O)CCC1(C)C2CCC1/C(=N/O)C2 (centres undefined) | > 100 |
| O=C1/C(=C\c2cccc(Oc3ccccc3)c2)S(=O)(=O)C(c2ccccc2)N1c1cc(Cl)ccc1Cl (centres undefined) | > 100 |
| CCc1nc(N)c2nc(-c3ccc(C#N)cc3)oc2n1 | > 100 |
| S=C(NCCc1ccccn1)c1nc[nH]c1C(=S)NCCc1ccccn1 | > 100 |

The compounds below were run on NCI-H460 lung (assay: inhibition of tumour cell growth, NCI panel, 48 h).

| SMILES | TGI [µM] |
| --- | --- |
| O=C1/C(=C\c2cccc(Oc3ccccc3)c2)S(=O)(=O)C(c2ccccc2)N1c1cc(Cl)ccc1Cl (centres undefined) | > 100 |
| CCc1nc(N)c2nc(-c3ccc(C#N)cc3)oc2n1 | > 100 |
| S=C(NCCc1ccccn1)c1nc[nH]c1C(=S)NCCc1ccccn1 | 64.6 |

These compounds were tested on PC-3 prostate (assay: inhibition of tumour cell growth, NCI panel, 48 h).

| SMILES | TGI [µM] |
| --- | --- |
| Cc1ncc(CSc2ccccc2N)c(CO)c1O | > 100 |
| COC(=O)CCC1(C)C2CCC1/C(=N/O)C2 (centres undefined) | > 100 |
| O=C1/C(=C\c2cccc(Oc3ccccc3)c2)S(=O)(=O)C(c2ccccc2)N1c1cc(Cl)ccc1Cl (centres undefined) | > 100 |
| CCc1nc(N)c2nc(-c3ccc(C#N)cc3)oc2n1 | > 100 |
| S=C(NCCc1ccccn1)c1nc[nH]c1C(=S)NCCc1ccccn1 | > 100 |

What follows are compounds tested on BT-549 breast (assay: inhibition of tumour cell growth, NCI panel, 48 h).

| SMILES | TGI [µM] |
| --- | --- |
| Cc1ncc(CSc2ccccc2N)c(CO)c1O | > 100 |
| COC(=O)CCC1(C)C2CCC1/C(=N/O)C2 (centres undefined) | > 100 |
| O=C1/C(=C\c2cccc(Oc3ccccc3)c2)S(=O)(=O)C(c2ccccc2)N1c1cc(Cl)ccc1Cl (centres undefined) | 35.6 |
| CCc1nc(N)c2nc(-c3ccc(C#N)cc3)oc2n1 | > 100 |
| S=C(NCCc1ccccn1)c1nc[nH]c1C(=S)NCCc1ccccn1 | > 100 |

Each compound was assayed on OVCAR-5 ovarian (assay: inhibition of tumour cell growth, NCI panel, 48 h).

| SMILES | TGI [µM] |
| --- | --- |
| Cc1ncc(CSc2ccccc2N)c(CO)c1O | > 100 |
| COC(=O)CCC1(C)C2CCC1/C(=N/O)C2 (centres undefined) | > 100 |
| O=C1/C(=C\c2cccc(Oc3ccccc3)c2)S(=O)(=O)C(c2ccccc2)N1c1cc(Cl)ccc1Cl (centres undefined) | 58.6 |
| CCc1nc(N)c2nc(-c3ccc(C#N)cc3)oc2n1 | > 100 |
| S=C(NCCc1ccccn1)c1nc[nH]c1C(=S)NCCc1ccccn1 | > 100 |

These compounds were tested on U251 CNS (assay: inhibition of tumour cell growth, NCI panel, 48 h).

| SMILES | TGI [µM] |
| --- | --- |
| Cc1ncc(CSc2ccccc2N)c(CO)c1O | > 100 |
| COC(=O)CCC1(C)C2CCC1/C(=N/O)C2 (centres undefined) | > 100 |
| O=C1/C(=C\c2cccc(Oc3ccccc3)c2)S(=O)(=O)C(c2ccccc2)N1c1cc(Cl)ccc1Cl (centres undefined) | > 100 |
| S=C(NCCc1ccccn1)c1nc[nH]c1C(=S)NCCc1ccccn1 | > 100 |

What follows are compounds tested on SR leukemia (assay: inhibition of tumour cell growth, NCI panel, 48 h).

| SMILES | TGI [µM] |
| --- | --- |
| Cc1ncc(CSc2ccccc2N)c(CO)c1O | > 100 |
| COC(=O)CCC1(C)C2CCC1/C(=N/O)C2 (centres undefined) | > 100 |
| O=C1/C(=C\c2cccc(Oc3ccccc3)c2)S(=O)(=O)C(c2ccccc2)N1c1cc(Cl)ccc1Cl (centres undefined) | > 100 |
| CCc1nc(N)c2nc(-c3ccc(C#N)cc3)oc2n1 | > 100 |
| S=C(NCCc1ccccn1)c1nc[nH]c1C(=S)NCCc1ccccn1 | > 100 |

Each compound was assayed on MDA-N (assay: inhibition of tumour cell growth, NCI panel, 48 h).

| SMILES | TGI [µM] |
| --- | --- |
| Cc1ncc(CSc2ccccc2N)c(CO)c1O | > 100 |
| COC(=O)CCC1(C)C2CCC1/C(=N/O)C2 (centres undefined) | > 100 |
| O=C1/C(=C\c2cccc(Oc3ccccc3)c2)S(=O)(=O)C(c2ccccc2)N1c1cc(Cl)ccc1Cl (centres undefined) | 28.8 |
| CCc1nc(N)c2nc(-c3ccc(C#N)cc3)oc2n1 | > 100 |
| S=C(NCCc1ccccn1)c1nc[nH]c1C(=S)NCCc1ccccn1 | > 100 |
